Key:
breast cancer = details: human, in vivo; cited from earlier work
[1] = system: PR target gene expression; experiment: Global gene expression analysis (Illumina HT-12v4) in T47D cells expressing WT or K388R PR-B; format: cell-based, human; details: for regulation of PR target genes in cells expressing KR PR: T47D KR PR
Experimental: For genome-wide microarray expression analysis, T47D cells expressing pIRES-neo3 empty vector, WT PR, or K388R PR were serum starved in modified improved minimum essential media (IMEM) (Gibco, ThermoFisher Scientific, Waltham, Mass.) for one day before treatment. Eight groups were treated with vehicle control, progesterone (10^−8 M), mifepristone (10^−7 M), aglepristone (10^−7 M), onapristone (10^−7 M), or combined treatment of progesterone+mifepristone, progesterone+aglepristone, or progesterone+onapristone for six hours before RNA extraction using a RNeasy kit (QIAgen). DNase I treated (QIAgen) RNA samples from triplicate experiments were prepared for expression analysis using the Illumina HT-12v4 bead chip platform according to standard protocols. Raw data from agonist-treated cells (progesterone or R5020) collected from two identically performed independent experiments (from this study and a previous study: GSE34148 (Knutson et al. Breast Cancer Res 2012, 14:R95)) was combined, normalized, and batch-corrected to ensure that gene expression values were informative across samples from separate experiments. Data were analyzed within multiple common R (R Core Team: R: A language and environment for statistical computing. R Foundation for Statistical Computing, Vienna, Austria 2015, [available on the world wide web at r-project.org/]) and Bioconductor (Gentleman et al. Genome Biol 2004, 5:R80) packages. Raw intensities were log 2 transformed and quantile normalized using lumi (Du et al. Bioinformatics 2008, 24:1547-1548), batch corrected using sva (Leek et al.: sva: Surrogate Variable Analysis. R package version 3.18.0.), and multiple probes for a single gene were collapsed using genefilter (Gentleman et al.: genefilter: genefilter: methods for filtering genes from high-throughput experiments. R package version 1.52.1). Differentially expressed genes (pairwise comparisons between all eight groups) were analyzed in limma (Smyth: Limma: linear models for microarray data. In: Bioinformatics and computational biology solutions using R and Bioconductor. edn.: Springer; 2005: 397-420), where empirical Bayes was used to better estimate the variance of the genes. Biological comparisons (for example, R5020/vehicle) were presented as log 2 fold change including the Benjamini and Hochberg (BH) adjusted P value (Benjamini et al. J Roy Stat Soc B Met 1995, 57:289-300) to account for multiple hypothesis testing. Expression data is available in the GEO database, accession: GSE94363.
Normalized gene expression data were filtered to isolate only high variance genes using the bioconductor package genefilter (Gentleman et al.: genefilter: genefilter: methods for filtering genes from high-throughput experiments. In., R package version 1.50.0 edn: R package version 1.50.0) using interquartile range cutoff value of 0.85. Non-negative matrix factorization (NMF) was performed within R using the NMF package version 0.20.5 (Gaujoux et al. BMC bioinformatics 2010, 11:367) where matrix factors were rank (2-10) and algorithm (brunet or snmf/r) optimized using the nmf function with parameters nrun=30 and seed=123456. […] Clustering and plots were performed in R (NMF package, a heat map function) using Euclidean distance and UPGMA (average) linkage.
PR ligand-mediated promoter selectivity remains understudied, especially in the context of antiprogestins and posttranslationally modified PR species. […]

[2] = system: PR Ser294 phosphorylation; experiment: PR Ser294 phosphorylation in T47D cells (Western blotting, immunofluorescence); format: cell-based, human; details: T47D cells expressing WT or KR PR; for PR Ser294 phosphorylation, ligand alone: 1 hour; for PR Ser294 phosphorylation in the presence of progesterone (co-treatment): progesterone plus antiprogestin
Experimental: T47D human breast cancer cell lines engineered to stably express PR variants (null, WT, K388R, or S294A) were previously described (Knutson et al. Breast Cancer Res 2012, 14:R9). T47D cells were maintained in complete minimal essential medium (cMEM) supplemented with 5% fetal bovine serum (FBS), 1% non-essential amino acids (NEAA), 1% penicillin/streptomycin, 6 ng/ml insulin (CellGro, Manassas, Va., USA, catalog #10-010-CV). T47D cells described above were engineered to also stably express RUNX2 shRNAs via the pLKO.1 knockdown expression vector system, which required 25 μg/ml puromycin for the vector. In various experiments, cells or explants were treated with E2, ICI 182 780, R5020, mifepristone, aglepristone, or onapristone (Arno Therapeutics, Inc., Flemington, N.J.).
Immunocytochemistry was performed on T47D cells expressing PR variants to measure total- and phospho-Ser294 PR levels. 500,000 cells were grown on coverslips in 6-well plates, starved in IMEM plus 5% charcoal stripped FBS, treated, and fixed with 4% paraformaldehyde for 20 min. The cells were permeabilized with 0.3% Triton-X100 before incubating with total-PR (clone Ab8, ThermoFisher Scientific, Waltham, Mass.) or custom phospho-Ser294-PR (clone 8508) antibodies. Cells were incubated with fluorescent secondary antibodies (Alexa Fluor 488) and DAPI mounting medium (Life Technologies, ThermoFisher Scientific, Waltham, Mass.) before visualizing on a Zeiss microscope with A4 and L5 filter cubes. Immunoblotting was performed as previously described (Daniel et al. Mol Endocrinol 2007, 21:2890-2906).
In addition, extensive luminal breast cancer heterogeneity may limit the ability to observe a subset of PR-driven breast cancers without patient selection. In this case, PR target gene expression may provide an accurate means of predicting which breast tumors are likely to be influenced by PR-driven biological pathways enacted by active phospho-Ser294 PRs. To probe changes in PR target gene expression in the presence or absence of commonly used PR ligands (R5020, RU486), including diverse antiprogestins (aglepristone, onapristone) currently in development for clinical use, the well characterized model system of T47D breast cancer cells, stably expressing either unmodified wild-type (WT) PR-B or a transcriptionally hyperactive form of deSUMOylated K388R PR-B (KR; this receptor faithfully mimics phosphorylated PR-B with regard to target gene selection) were used (Knutson et al. Pharmacology & therapeutics 2014, 142:114-125; Daniel et al. Mol Endocrinol 2007, 21:2890-2906). Whether the antiprogestins mifepristone (also called RU486), aglepristone, or onapristone alter PR Ser294 phosphorylation were tested in these T47D breast cancer models. Cells were treated for 1 hour with vehicle, progesterone, mifepristone, aglepristone, or onapristone and whole cell lysates were processed for Western blotting or immunofluorescence (IF) analysis (FIG. 4A, B). […] Greater loss of total KR PR protein was also apparent in the presence of progesterone and selected antiprogestins relative to liganded WT PR, consistent with increased turnover of deSUMOylated active receptors relative to intact WT PRs.

Row | Compound | outcome in clinical trials for breast cancer (breast cancer) | regulation of PR target genes in cells expressing KR PR ([1]; antiprogestin 10^-7 M, 6 hours) | PR Ser294 phosphorylation, ligand alone [2] | PR Ser294 phosphorylation in the presence of progesterone (co-treatment) [2] | regulation of PR target genes in cells expressing WT PR ([1]; T47D WT PR, antiprogestin 10^-7 M, 6 hours) | PR transcriptional activity (hierarchical clustering of regulated genes) ([1]; T47D WT or KR PR, compared with PR-null cells)
1 | CC#C[C@]1(O)CC[C@H]2[C@@H]3CCC4=CC(=O)CCC4=C3[C@@H](c3ccc(N(C)C)cc3)C[C@@]21C [mifepristone] | has not been successful | substantially regulate multiple genes in cells expressing KR PR | stimulated robust PR Ser294 phosphorylation | also induced Ser294 phosphorylation |  | 
2 | CN(C)c1ccc([C@H]2C[C@]3(C)[C@@H](CC[C@]3(O)CCCO)[C@@H]3CCC4=CC(=O)CCC4=C32)cc1 [onapristone] |  | does not substantially regulate PR target genes in either cell line | had no effect on PR Ser294 phosphorylation | blocked Ser294 phosphorylation in the presence of progesterone | does not substantially regulate PR target genes in either cell line | effectively inhibited PR (either WT or KR) transcriptional activity comparable to the level found in PR-null (control) cells
3 | CC(=O)[C@H]1CC[C@H]2[C@@H]3CCC4=CC(=O)CC[C@]4(C)[C@H]3CC[C@]12C [progesterone] |  |  | stimulated PR Ser294 phosphorylation |  |  | 

Reference: patent US10942183B2, “Methods of detecting progesterone receptor and of detecting an expression level” (REGENTS OF THE UNIVERSITY OF MINNESOTA, priority 2017, dated 2021)
